According to patent publication US11986532B2 (Arvinas Operations, Inc., priority 2021, dated 2024):
Like-named read-outs stand apart in the source and are kept apart here.

Target: T1, BCL6 (Homo sapiens, UniProt P41182)
T1 construct: endogenous in cells; host or cells: T47D breast cancer epithelial cells
Assay: Immunofluorescence protocol for high content imaging of BCL6 (degradation) in T47D cells, 3 days compound treatment
Format: cell-based
Details: for DC50: read-out: Mean DC50 (nM)* category; for Dmax: read-out: Mean Dmax (%)** category
In short: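 For degradation, compound series (3-fold, 11 points, top 0.1 or 1 μM final) were added to adherent T47D cultures for 3 days. BCL6 immunostaining used a rabbit antibody at 1:300 and an Alexa-488 secondary, with imaging at 10× magnification.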

[1] = T47D cells, 3 days compound treatment

DC50 [1] [nM] | Dmax [1] [%] | SMILES | Dmax (T47D) [%] | DC50 [nM] | Mean Dmax (%)** category
– | – | CNC(=O)COc1cc2cc(Nc3nc(N4CCC(O[C@H]5C[C@H](N6CCC7(CC6)CN(c6ccc8c(c6C)C(=O)N(C6CCC(=O)NC6=O)C8=O)C7)C5)CC4)ncc3Cl)ccc2n(C(C)C)c1=O (stereo partly drawn) [Compound 414, 2-({6-[(5-chloro-2-{4-[(1r,3r)-3-{2-[2-(2,6-dioxopiperidin-3-yl)-4-methyl-1,3-dioxo-2,3-dihydro-1H-isoindol-5-yl]-2,7-diazaspiro[3.5]nonan-7-yl}cyclobutoxy]piperidin-1-yl}pyrimidin-4-yl)amino]-2-oxo-1-(propan-2-yl)-1,2-dihydroquinolin-3-yl}oxy)-N-methylacetamide] | ≥ 70 | < 10 | –
– | – | CNC(=O)COc1cc2cc(Nc3nc(N4CCC(O[C@H]5C[C@H](N6CCC(c7ccc8c(c7F)CN(C7CCC(=O)NC7=O)C8=O)CC6)C5)CC4)ncc3Cl)ccc2n(CC(C)C)c1=O (stereo partly drawn) [Compound 425, 2-({6-[(5-chloro-2-{4-[(1r,3r)-3-{4-[2-(2,6-dioxopiperidin-3-yl)-4-fluoro-1-oxo-2,3-dihydro-1H-isoindol-5-yl]piperidin-1-yl}cyclobutoxy]piperidin-1-yl}pyrimidin-4-yl)amino]-1-(2-methylpropyl)-2-oxo-1,2-dihydroquinolin-3-yl}oxy)-N-methylacetamide] | ≥ 70 | < 10 | –
– | – | CNC(=O)COc1cc2c(F)c(Nc3cc(N4CCC(CN5CCC6(CN(c7ccc8c(c7)CN(C7CCC(=O)NC7=O)C8=O)C6)C(F)(F)C5)CC4)ncc3Cl)ccc2n(C(C)C)c1=O (stereo not drawn) [Compound 251, 2-{[6-({5-chloro-2-[4-({2-[2-(2,6-dioxopiperidin-3-yl)-1-oxo-2,3-dihydro-1H-isoindol-5-yl]-5,5-difluoro-2,7-diazaspiro[3.5]nonan-7-yl}methyl)piperidin-1-yl]pyridin-4-yl}amino)-5-fluoro-2-oxo-1-(propan-2-yl)-1,2-dihydroquinolin-3-yl]oxy}-N-methylacetamide] | ≥ 70 | < 10 | –
< 10 | ≥ 70 | CNC(=O)COc1cc2cc(Nc3nc(N4CCN(CC5CC6(CCN(c7cccc8c7CN(C7CCC(=O)NC7=O)C8=O)CC6)C5)CC4)ncc3Cl)ccc2n(C(C)C)c1=O (stereo not drawn) [Compound 7, 2-{[6-({5-chloro-2-[4-({7-[2-(2,6-dioxopiperidin-3-yl)-1-oxo-2,3-dihydro-1H-isoindol-4-yl]-7-azaspiro[3.5]nonan-2-yl}methyl)piperazin-1-yl]pyrimidin-4-yl}amino)-2-oxo-1-(propan-2-yl)-1,2-dihydroquinolin-3-yl]oxy}-N-methylacetamide] | – | – | –
– | – | CNC(=O)COc1cc2cc(Nc3nc(N4CCC(O[C@H]5C[C@H](N6C[C@@H](C)N(c7ccc8c(c7)C(=O)N(C7CCC(=O)NC7=O)C8=O)[C@@H](C)C6)C5)CC4)ncc3Cl)ccc2n(C(C)C)c1=O (stereo partly drawn) [Compound 244, 2-({6-[(5-chloro-2-{4-[(1r,3r)-3-[(3R,5S)-4-[2-(2,6-dioxopiperidin-3-yl)-1,3-dioxo-2,3-dihydro-1H-isoindol-5-yl]-3,5-dimethylpiperazin-1-yl]cyclobutoxy]piperidin-1-yl}pyrimidin-4-yl)amino]-2-oxo-1-(propan-2-yl)-1,2-dihydroquinolin-3-yl}oxy)-N-methylacetamide] | – | 10 to 50 | A (A >= 70)
< 10 | 50 to 70 | CNC(=O)COc1cc2cc(Nc3nc(N4CCC5(CCN(CC6(F)CCN(c7cccc8c7CN(C7CCC(=O)NC7=O)C8=O)CC6)CC5)CC4)ncc3Cl)ccc2n(C(C)C)c1=O (stereo not drawn) [Compound 95, 2-{[6-({5-chloro-2-[9-({1-[2-(2,6-dioxopiperidin-3-yl)-1-oxo-2,3-dihydro-1H-isoindol-4-yl]-4-fluoropiperidin-4-yl}methyl)-3,9-diazaspiro [5.5]undecan-3-yl]pyrimidin-4-yl}amino)-2-oxo-1-(propan-2-yl)-1,2-dihydroquinolin-3-yl]oxy}-N-methylacetamide] | – | – | –
≥ 100 | ≥ 70 | CC(C)n1c(=O)c(OCC(=O)N(C)C)cc2cc(Nc3nc(N4CCC(CN5CCC6(CC5)CN(c5ccc7c(c5)C(=O)N(C5CCC(=O)NC5=O)C7=O)C6)CC4)ncc3Cl)ccc21 (stereo not drawn) [Compound 55, 2-{[6-({5-chloro-2-[4-({2-[2-(2,6-dioxopiperidin-3-yl)-1,3-dioxo-2,3-dihydro-1H-isoindol-5-yl]-2,7-diazaspiro[3.5]nonan-7-yl}methyl)piperidin-1-yl]pyrimidin-4-yl}amino)-2-oxo-1-(propan-2-yl)-1,2-dihydroquinolin-3-yl]oxy}-N,N-dimethylacetamide] | – | – | –
< 10 | ≥ 70 | CNC(=O)COc1cc2c(F)c(Nc3nc(N4CCN(CC5CCC6(CC5)CN(c5cccc7c5C(=O)N(C5CCC(=O)NC5=O)C7=O)C6)CC4)ncc3Cl)ccc2n(C(C)C)c1=O (stereo not drawn) [Compound 169, 2-{[6-({5-chloro-2-[4-({2-[2-(2,6-dioxopiperidin-3-yl)-1,3-dioxo-2,3-dihydro-1H-isoindol-4-yl]-2-azaspiro[3.5]nonan-7-yl}methyl)piperazin-1-yl]pyrimidin-4-yl}amino)-5-fluoro-2-oxo-1-(propan-2-yl)-1,2-dihydroquinolin-3-yl]oxy}-N-methylacetamide] | – | – | –
< 10 | – | CNC(=O)COc1cc2cc(Nc3nc(N4CCN(CC5C6CN(c7cccc8c7C(=O)N(C7CCC(=O)NC7=O)C8=O)CC56)CC4)ncc3Cl)ccc2n(C(C)C)c1=O (stereo not drawn) [Compound 156, 2-{[6-({5-chloro-2-[4-({3-[2-(2,6-dioxopiperidin-3-yl)-1,3-dioxo-2,3-dihydro-1H-isoindol-4-yl]-3-azabicyclo[3.1.0]hexan-6-yl}methyl)piperazin-1-yl]pyrimidin-4-yl}amino)-2-oxo-1-(propan-2-yl)-1,2-dihydroquinolin-3-yl]oxy}-N-methylacetamide] | – | – | –
< 10 | ≥ 70 | CNC(=O)COc1cc2cc(Nc3nc(N4CCC(CN5CC6(CCN(c7cc8c(cc7F)C(=O)N(C7CCC(=O)NC7=O)C8)CC6)C5)CC4)ncc3Cl)ccc2n(C(C)C)c1=O (stereo not drawn) [Compound 84] | – | – | –
– | – | CNC(=O)COc1cc2cc(Nc3nc(N4CCN(CC5CCC6(CC5)CN(c5cccc7c5CN(C5CCC(=O)NC5=O)C7=O)C6)CC4)ncc3Cl)ccc2n(C(C)C)c1=O (stereo not drawn) [Compound 313, 2-{[6-({5-chloro-2-[4-({2-[2-(2,6-dioxopiperidin-3-yl)-1-oxo-2,3-dihydro-1H-isoindol-4-yl]-2-azaspiro[3.5]nonan-7-yl}methyl)piperazin-1-yl]pyrimidin-4-yl}amino)-2-oxo-1-(propan-2-yl)-1,2-dihydroquinolin-3-yl]oxy}-N-methylacetamide] | 50 to 70 | < 10 | –
– | – | CNC(=O)COc1cc2cc(Nc3nc(N4CCC(O[C@H]5C[C@H](N6CCC7(CCCN(c8ccc9c(c8)CN(C8CCC(=O)NC8=O)C9=O)C7)C6)C5)CC4)ncc3Cl)ccc2n(C(C)C)c1=O (stereo partly drawn) [Compound 354, 2-({6-[(5-chloro-2-{4-[(1r,3r)-3-{7-[2-(2,6-dioxopiperidin-3-yl)-1-oxo-2,3-dihydro-1H-isoindol-5-yl]-2,7-diazaspiro[4.5]decan-2-yl}cyclobutoxy]piperidin-1-yl}pyrimidin-4-yl)amino]-2-oxo-1-(propan-2-yl)-1,2-dihydroquinolin-3-yl}oxy)-N-methylacetamide] | 50 to 70 | < 10 | –
< 10 | ≥ 70 | CNC(=O)COc1cc2c(F)c(Nc3nc(N4CCC(O[C@H]5C[C@H](N6CCN(c7ccc8c(c7C)C(=O)N(C7CCC(=O)NC7=O)C8=O)CC6)C5)CC4)ncc3Cl)ccc2n(C(C)C)c1=O (stereo partly drawn) [Compound 195] | – | – | –
– | – | CNC(=O)COc1cc2cc(Nc3nc(N4CCC(O[C@H]5C[C@H](N6CCCC7(CCN(c8ccc9c(c8F)CN(C8CCC(=O)NC8=O)C9=O)C7)C6)C5)CC4)ncc3Cl)ccc2n(C(C)C)c1=O (stereo partly drawn) [Compound 401, 2-({6-[(5-chloro-2-{4-[(1r,3r)-3-{2-[2-(2,6-dioxopiperidin-3-yl)-4-fluoro-1-oxo-2,3-dihydro-1H-isoindol-5-yl]-2,7-diazaspiro[4.5]decan-7-yl}cyclobutoxy]piperidin-1-yl}pyrimidin-4-yl)amino]-2-oxo-1-(propan-2-yl)-1,2-dihydroquinolin-3-yl}oxy)-N-methylacetamide] | ≥ 70 | < 10 | –

SMILES | DC50 [1] [nM] | Dmax [1] [%] | Dmax (T47D) [%] | DC50 [nM] | Mean Dmax (%)** category
CNC(=O)COc1cc2cc(Nc3nc(N4CCC(O[C@H]5C[C@H](N6CCC(c7ccc8c(c7Cl)CN(C7CCC(=O)NC7=O)C8=O)CC6)C5)CC4)ncc3Cl)ccc2n(C(C)C)c1=O (stereo partly drawn) [Compound 163, 2-({6-[(5-chloro-2-{4-[(1r,3r)-3-{4-[4-chloro-2-(2,6-dioxopiperidin-3-yl)-1-oxo-2,3-dihydro-1H-isoindol-5-yl]piperidin-1-yl}cyclobutoxy]piperidin-1-yl}pyrimidin-4-yl)amino]-2-oxo-1-(propan-2-yl)-1,2-dihydroquinolin-3-yl}oxy)-N-methylacetamide] | < 10 | ≥ 70 | – | – | –
CNC(=O)COc1cc2cc(Nc3nc(N4CCC(O[C@H]5C[C@H](N6CCC(c7c(F)cc8c(c7F)CN(C7CCC(=O)NC7=O)C8=O)CC6)C5)CC4)ncc3Cl)ccc2n(C(C)C)c1=O (stereo partly drawn) [Compound 116, 2-({6-[(5-chloro-2-{4-[(1r,3r)-3-{4-[2-(2,6-dioxopiperidin-3-yl)-4,6-difluoro-1-oxo-2,3-dihydro-1H-isoindol-5-yl]piperidin-1-yl}cyclobutoxy]piperidin-1-yl}pyrimidin-4-yl)amino]-2-oxo-1-(propan-2-yl)-1,2-dihydroquinolin-3-yl}oxy)-N-methylacetamide] | < 10 | 50 to 70 | – | – | –
CCc1c(N2CCN([C@H]3C[C@H](OC4CCN(c5ncc(Cl)c(Nc6ccc7c(c6)cc(OCC(=O)NC)c(=O)n7C(C)C)n5)CC4)C3)CC2)ccc2c1C(=O)N(C1CCC(=O)NC1=O)C2=O (stereo partly drawn) [Compound 200, 2-({6-[(5-chloro-2-{4-[(1r,3r)-3-{4-[2-(2,6-dioxopiperidin-3-yl)-4-ethyl-1,3-dioxo-2,3-dihydro-1H-isoindol-5-yl]piperazin-1-yl}cyclobutoxy]piperidin-1-yl}pyrimidin-4-yl)amino]-2-oxo-1-(propan-2-yl)-1,2-dihydroquinolin-3-yl}oxy)-N-methylacetamide] | 10 to 50 | ≥ 70 | – | – | –
